Test system: human myeloma cell line MM.1S
Experiment: SILAC acetylated-lysine peptide profiling, HDAC inhibitor vs DMSO (light/heavy ratio)
Type: cell-based
Text: An embodiment of the invention comprises utilizing the SILAC method in order to quantitate changes in protein expression between two or more populations of cells. The SILAC method is a technique based on mass spectrometry that detects differences in protein abundance among samples using non-radioactive isotopic labeling. The SILAC method is known in the art, and described in detail in Ong et al., “Stable Isotope Labeling by Amino Acids in Cell Culture, SILAC, as a Simple and Accurate Approach to Expression Proteomics”, Molecular & Cellular Proteomics, vol. 1, pp. 376-386 (2002), which is incorporated herein by reference in its entirety.
Briefly, the SILAC method involves growing two populations of cells in cell culture. The first population of cells is grown in growth media containing normal amino acids (“normal media”). The second population of cells is grown in media lacking a standard essential amino acid (such as lysine), but is then supplemented with a non-radioactive, isotopically labeled form of that essential amino acid (such as lysine labeled with ^13C atoms, rather than normal ^12C atoms), which is called “heavy media”. When the two populations of cells are each growing in the medium, they incorporate the amino acids into all of their proteins. The growth of cells maintained in the heavy media is no different from that in normal media. All peptides containing the heavy amino acids are heavier than their normal counterparts. The cells from each of the two populations of cells are lysed. The lysates from each of the two cell populations are then combined. The combined cell lysates are then analyzed by mass spectrometry. Pairs of chemically identical peptides of different stable isotope composition can be differentiated in a mass spectrometer due to their difference in mass. The ratio of peak intensities in the mass spectrum for such peptide pairs reflects the abundance ratio for the two proteins.
This example describes SILAC studies that were performed to compare the effects of three different HDAC inhibitors (Compound A, Compound B, and tubastatin A) to a control on a human multiple myeloma cell line. The HDAC inhibitors were also compared amongst themselves to determine differences in their effects.
A human myeloma cell line MM.1S was grown using either ^12C (light) or ^13C (heavy) lysine containing culture medium. The “heavy” cells were treated with DMSO as the control, and the “light” cells were treated with a single HDAC inhibitor at 37° C. for 6 hours. The heavy and light cells were lysed, and the lysates were mixed in 1:1 ratio and digested with the protease trypsin. The acetylated lysine containing peptides (due to the action of the HDAC inhibitor) in the digested peptide pool were captured by a non-specific anti-acetylated lysine antibody cocktail (the antibodies identify both light and heavy acetylated peptides), and subjected to mass spectrometry analysis in order to identify thousands of individual peptides.
Thousands of peptides were identified in pairs (^12C and ^13C) due to their known mass differences. The amino acid sequence and quantitative ratio (Light/Heavy) of a given peptide in two differentially treated cell lysates were then determined and annotated with their possible protein (gene) sources.
As stated above, three HDAC inhibitors (Compound A, Compound B, and Tubastatin A) were used. Thus, the SILAC method was performed three times, with a different HDAC inhibitor compared to a control each time. Accordingly, there are three pairs of quantitative data in the table below, i.e., Compound A:DMSO, Compound B:DMSO, and Tubastatin A:DMSO. A cut-off of 1.30 fold of change (increase or decrease) was then used to determine “changed” or “+” in the table, and any peptides with a fold of change less than 1.3 fold were determined to be “unchanged” or “0” in the table. Those peptides that were not identified were marked as “NA” in the table. […]

For `O=C(CCCCCCNC(=O)c1cnc(N(c2ccccc2)c2ccccc2)nc1)NO` [Compound A, 2-(diphenylamino)-N-(7-(hydroxyamino)-7-oxoheptyl)pyrimidine-5-carboxamide], the “L/H ratio of acetylated peptide SELK(ac)HAK” value (SEQ ID NO: 696, Isoform Long of Delta-1-pyrroline-5-carboxylate synthase [68], ALDH18A1) was 0.66 log 2, the “L/H ratio of acetylated peptide SCGLNPK(ac)LEK” value (SEQ ID NO: 697, Isoform 5 of Transcriptional regulator ATRX [468], ATRX) was 0.66 log 2 and the “L/H ratio of acetylated peptide EVK(ac)VLLDQLR” value (SEQ ID NO: 698, Isoform 1 of Adipocyte plasma membrane-associated protein [250], C20orf3) was 0.67 log 2. The “L/H ratio of acetylated peptide KAVTK(ac)VQK” value (SEQ ID NO: 699, Histone H2B type 2-F [21], HIST2H2BF) was 0.67 log 2, the “L/H ratio of acetylated peptide ILQK(ac)QGFK” value (SEQ ID NO: 700, Dihydrolipoyl dehydrogenase mitochondrial [267], DLD) was 0.67 log 2 and the “L/H ratio of acetylated peptide NK(ac)FGAPQK” value (SEQ ID NO: 701, Trifunctional enzyme subunit alpha mitochondrial [353], HADHA) was 0.68 log 2. The “L/H ratio of acetylated peptide VTAVHK(ac)ANIMK” value (SEQ ID NO: 702, Isocitrate dehydrogenase [NAD] subunit gamma mitochondrial [221], IDH3G) was 0.68 log 2, the “L/H ratio of acetylated peptide ACPEK(ac)HFAFK” value (SEQ ID NO: 703, Protein FAM3C [67], FAM3C) was 0.68 log 2 and the “L/H ratio of acetylated peptide KPTLDK(ac)PSPETFVK” value (SEQ ID NO: 704, Estradiol 17-beta-dehydrogenase 12 [249], HSD17B12) was 0.68 log 2. The “L/H ratio of acetylated peptide QLAQK(ac)YNCDK” value (SEQ ID NO: 705, Ubiquitin-60S ribosomal protein L40 [88], UBA52) was 0.68 log 2, the “L/H ratio of acetylated peptide […](ac)EDVK” value (SEQ ID NO: 706, Isoform 1 of ATP synthase subunit d mitochondrial [95], ATP5H) was 0.68 log 2 and the “L/H ratio of acetylated peptide […](ac)TLSK” value (SEQ ID NO: 707, Isoform 2 of PDZ domain-containing protein 2 [1726], PDZD2) was 0.69 log 2. For the same compound, the “L/H ratio of acetylated peptide ADK(ac)LAEEHSS” value (SEQ ID NO: 708, ATP synthase subunit beta mitochondrial [522], ATP5B) was 0.70 log 2, the “L/H ratio of acetylated peptide DFGSFDK(ac)FK” value (SEQ ID NO: 709, Superoxide dismutase [Mn] mitochondrial [130], SOD2) was 0.70 log 2 and the “L/H ratio of acetylated peptide KIDK(ac)YTEVLK” value (SEQ ID NO: 710, 60S ribosomal protein L13a [191], SNORD32A, RPL13A, SNORD33, SNORD34) was 0.70 log 2. For the same compound, the “L/H ratio of acetylated peptide CSK(ac)LPSSTK(ac)SGWPR” value (SEQ ID NO: 711, cDNA FLJ75110 highly similar to Homo sapiens PHD finger protein 15 (PHF15) mRNA 3[2:38], PHF15) was 0.70 log 2, the “L/H ratio of acetylated peptide KAINK(ac)AQK” value (SEQ ID NO: 712, Histone H2B type 1-M [21], HIST1H2BM) was 0.70 log 2 and the “L/H ratio of acetylated peptide EFPEK(ac)QELHR” value (SEQ ID NO: 713, Protein zer-1 homolog [584], ZER1) was 0.70 log 2. The “L/H ratio of acetylated peptide TDLEK(ac)[…]” value (SEQ ID NO: 714, Putative annexin A2-like protein [157], ANXA2P2) was 0.71 log 2, the “L/H ratio of acetylated peptide […](ac)ASMK” value (SEQ ID NO: 715, Putative annexin A2-like protein [115], ANXA2P2) was 0.72 log 2 and the “L/H ratio of acetylated peptide LTCYLCK(ac)QK” value (SEQ ID NO: 716, Isoform 1 of Bromodomain-containing protein 1 [33]1, BRD1) was 0.72 log 2. For the same compound, the “L/H ratio of acetylated peptide AINK(ac)AQK(ac)K” value (SEQ ID NO: 717, Histone H2B type 1-M [21:24], HIST1H2BM) was 0.72 log 2, the “L/H ratio of acetylated peptide KGIEK(ac)NLGIGK” value (SEQ ID NO: 718, Malate dehydrogenase mitochondrial [301], MDH2) was 0.72 log 2 and the “L/H ratio of acetylated peptide DNGK(ac)[…]” value (SEQ ID NO: 719, ATP synthase subunit alpha mitochondrial [305], ATP5A1) was 0.72 log 2. For the same compound, the “L/H ratio of acetylated peptide QLYNIYAK(ac)HTK” value (SEQ ID NO: 720, Putative ATP-dependent Clp protease proteolytic subunit mitochondrial [211], CLPP) was 0.72 log 2, the “L/H ratio of acetylated peptide GKGDK(ac)AQIEK” value (SEQ ID NO: 721, 60 kDa heat shock protein mitochondrial [364], HSPD1) was 0.73 log 2 and the “L/H ratio of acetylated peptide K(ac)FLVHNVK” value (SEQ ID NO: 722, 60S ribosomal protein L32 [76], RPL32) was 0.73 log 2. The “L/H ratio of acetylated peptide GLIK(ac)LVSK” value (SEQ ID NO: 723, 40S ribosomal protein S25 [98], RPS25) was 0.73 log 2, the “L/H ratio of acetylated peptide IGFAEK(ac)VAAK” value (SEQ ID NO: 724, Isoform Mitochondrial of Fumarate hydratase mitochondrial [292], FH) was 0.73 log 2 and the “L/H ratio of acetylated peptide (ac)AEK(ac)FDCHYCR” value (SEQ ID NO: 725, four and a half LIM domains protein 1 isoform 5 [20], FHL1) was 0.73 log 2. The “L/H ratio of acetylated peptide […](ac)VIPK” value (SEQ ID NO: 726, Endoplasmic reticulum resident protein 29 [48], ERP29) was 0.73 log 2, the “L/H ratio of acetylated peptide […](ac)SVAR” value (SEQ ID NO: 727, 60S ribosomal protein L7a [245], RPL7A, SNORD24) was 0.73 log 2 and the “L/H ratio of acetylated peptide TITMK(ac)QLLR” value (SEQ ID NO: 728, Branched-chain-amino-acid aminotransferase [281], BCAT2) was 0.73 log 2. For the same compound, the “L/H ratio of acetylated peptide SK(ac)FVLVK” value (SEQ ID NO: 729, Endoplasmic reticulum resident protein 29 [54], ERP29) was 0.74 log 2 and the “L/H ratio of acetylated peptide LVEDTK(ac)HRPK” value (SEQ ID NO: 730, 39S ribosomal protein L9 mitochondrial [87], MRPL9) was 0.74 log 2.
